Test results taken from patent US20230416199A1, “INHIBITORS OF AMINO ACID TRANSPORT” (ICAHN SCHOOL OF MEDICINE AT MOUNT SINAI, priority 2020, published 2023).
Like-named read-outs stand apart in the source and are kept apart here.

Columns and labels:
Assay type in all cases: cell-based
hASCT2 [1] = biological target: T1, hASCT2 (Homo sapiens, UniProt Q15758); test: Competition experiment with alanine, hASCT2; conditions: 1 mM ala, first entry of the cell; for Ki: read-out: Competition Expt (h/rASCT2 Ki): hASCT2 Ki
T1 construct: expressed in transfected cells; host or cells: HEK293 (ATCC CRL-11268), transient transfection
T1 sequence (Q15758 1-541): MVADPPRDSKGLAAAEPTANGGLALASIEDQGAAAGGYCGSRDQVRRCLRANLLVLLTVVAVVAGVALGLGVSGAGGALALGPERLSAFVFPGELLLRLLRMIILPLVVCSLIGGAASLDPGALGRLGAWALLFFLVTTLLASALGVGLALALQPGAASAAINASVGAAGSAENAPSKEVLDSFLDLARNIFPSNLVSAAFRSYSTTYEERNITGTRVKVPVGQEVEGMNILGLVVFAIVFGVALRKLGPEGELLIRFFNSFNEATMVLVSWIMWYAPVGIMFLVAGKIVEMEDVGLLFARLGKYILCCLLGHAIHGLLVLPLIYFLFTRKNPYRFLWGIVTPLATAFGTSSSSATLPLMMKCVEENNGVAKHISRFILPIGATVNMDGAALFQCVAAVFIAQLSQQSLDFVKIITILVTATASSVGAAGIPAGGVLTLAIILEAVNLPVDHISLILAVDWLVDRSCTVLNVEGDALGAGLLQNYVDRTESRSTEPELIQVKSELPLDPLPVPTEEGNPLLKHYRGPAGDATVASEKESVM

rASCT2 = biological target: T2, rASCT2 (Rattus norvegicus, UniProt D3ZJ25); test: Electrophysiology (whole-cell current recording) of transfected HEK293 cells, rASCT2
T2 construct: expressed in transfected cells; host or cells: HEK293 (ATCC CRL-11268), transient transfection
T2 sequence (D3ZJ25 1-555): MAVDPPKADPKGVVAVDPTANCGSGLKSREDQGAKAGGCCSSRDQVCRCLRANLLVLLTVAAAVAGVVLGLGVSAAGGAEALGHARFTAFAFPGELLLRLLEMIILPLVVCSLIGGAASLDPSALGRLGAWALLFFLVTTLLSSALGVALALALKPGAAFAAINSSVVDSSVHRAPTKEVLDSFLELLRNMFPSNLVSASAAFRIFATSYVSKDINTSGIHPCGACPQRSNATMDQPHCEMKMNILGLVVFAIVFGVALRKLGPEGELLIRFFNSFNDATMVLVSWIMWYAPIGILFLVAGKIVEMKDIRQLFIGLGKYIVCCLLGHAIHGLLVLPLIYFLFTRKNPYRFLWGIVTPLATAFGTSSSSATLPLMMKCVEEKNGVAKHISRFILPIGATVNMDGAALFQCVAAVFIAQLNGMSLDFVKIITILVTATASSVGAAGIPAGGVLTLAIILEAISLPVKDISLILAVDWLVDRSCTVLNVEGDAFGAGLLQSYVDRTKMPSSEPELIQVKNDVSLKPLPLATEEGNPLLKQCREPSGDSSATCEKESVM
Procedure: (§1) Human embryonic kidney 293 (HEK293, ATCC CRL-11268) cells were cultured in DMEM media supplemented with 10% (v v) fetal bovine serum (FBS), 2 mM glutamine, 1% penicillin streptomycin solution, 1 mM sodium pyruvate and non-essential amino acids. Cells were maintained at 37° C. in a fully humidified atmosphere containing 5% CO2. rASCT2, hASCT2, hASCT1, EAAT1, EAAT2, EAAC1, EAAT5 and YFP complementary DNAs were each used to transiently transfect HEK293 using POLYPLUS Jet-prime transfection reagent. Cells were analyzed using electrophysiological techniques 24-40 hours after transfection.
(§2) Stock solutions of inhibitor was prepared in dimethyl sulfoxide (DMSO) up to 100 mM. Dilutions to working concentrations were made using external buffer. […] For rASCT2, hASCT2 and hASCT1, external buffer contained 140 mM NaCl, 2 mM MgCl2, 2 mM CaCl2), and 10 mM HEPES, pH 7.40 while internal pipette solution comprised of 130 mM NaSCN, 2 mM MgCl2, 10 mM EGTA, 10 mM HEPES and 10 mM alanine, pH 7.40. For specificity experiments with EAAT1, EAAT2, EAAC1 and EAAT5, internal solution contained 10 mM glutamate instead of alanine. Compounds were applied to HEK293 cells expressing DNA of interest suspended from a current recording electrode in whole cell configuration through a rapid solution exchange device. Cells are immersed in external buffer bath used to dissolve the inhibitors. The open pipette resistance was between 3 and 6 MΩ. Series resistance was not compensated in these experiments due to relatively small currents. Currents traces were recorded using an Adams and List EPC7 amplifier and digitized using a Molecular Devices Digidata A/D converter.
(§3) Linear and nonlinear curve fitting of the experimental data were analyzed using MicroCal Origin software. Nonlinear dose-response relationships were fitted with a Michaelis-Menten-like equation to obtain apparent Ki values in the absence of substrate (see TABLE 2 for Ki values). The figures show representative current traces and dose-response curves for hACST2 and rASCT2, used to obtain Ki values in TABLE 2 for compound SN 40. At least four experiments were performed with at least three different cells. Error bars in all graphs, e.g., in FIG. 1B and FIG. 1C and tables (Ki values) represent mean±SD.

hASCT1 = biological target: T3, hASCT1 (Homo sapiens, UniProt P43007); test: Electrophysiology (whole-cell current recording) of transfected HEK293 cells, hASCT1
T3 construct: expressed in transfected cells; host or cells: HEK293 (ATCC CRL-11268), transient transfection
T3 sequence (P43007 1-532): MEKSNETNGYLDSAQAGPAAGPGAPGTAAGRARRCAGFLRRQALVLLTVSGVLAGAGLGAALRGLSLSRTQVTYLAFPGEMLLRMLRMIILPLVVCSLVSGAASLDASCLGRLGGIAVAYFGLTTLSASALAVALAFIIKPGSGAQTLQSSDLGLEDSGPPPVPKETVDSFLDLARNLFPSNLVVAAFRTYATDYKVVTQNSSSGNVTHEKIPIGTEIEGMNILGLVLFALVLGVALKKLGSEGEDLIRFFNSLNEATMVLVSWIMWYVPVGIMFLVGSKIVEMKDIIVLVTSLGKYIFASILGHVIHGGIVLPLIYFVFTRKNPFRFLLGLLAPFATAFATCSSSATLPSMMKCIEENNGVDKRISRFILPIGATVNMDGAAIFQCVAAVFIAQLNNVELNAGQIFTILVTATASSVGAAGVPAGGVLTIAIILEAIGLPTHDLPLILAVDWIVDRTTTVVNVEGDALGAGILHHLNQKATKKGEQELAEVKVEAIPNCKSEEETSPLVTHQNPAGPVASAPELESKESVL
Procedure: as §1, §2, §3

hASCT2 [2] = biological target: T1, hASCT2; test: Electrophysiology (whole-cell current recording) of transfected HEK293 cells, hASCT2
Procedure: as §1, §2, §3

EAAT2 = biological target: T4, EAAT2 (Homo sapiens, UniProt P43004); test: Electrophysiology specificity experiment in transfected HEK293 cells, EAAT2; conditions: Table 3, dihydroxyproline derivatives; read-out: Ki All DNA: EAAT2
T4 construct: expressed in transfected cells; host or cells: HEK293 (ATCC CRL-11268), transient transfection
T4 sequence (P43004 whole entry, species assumed): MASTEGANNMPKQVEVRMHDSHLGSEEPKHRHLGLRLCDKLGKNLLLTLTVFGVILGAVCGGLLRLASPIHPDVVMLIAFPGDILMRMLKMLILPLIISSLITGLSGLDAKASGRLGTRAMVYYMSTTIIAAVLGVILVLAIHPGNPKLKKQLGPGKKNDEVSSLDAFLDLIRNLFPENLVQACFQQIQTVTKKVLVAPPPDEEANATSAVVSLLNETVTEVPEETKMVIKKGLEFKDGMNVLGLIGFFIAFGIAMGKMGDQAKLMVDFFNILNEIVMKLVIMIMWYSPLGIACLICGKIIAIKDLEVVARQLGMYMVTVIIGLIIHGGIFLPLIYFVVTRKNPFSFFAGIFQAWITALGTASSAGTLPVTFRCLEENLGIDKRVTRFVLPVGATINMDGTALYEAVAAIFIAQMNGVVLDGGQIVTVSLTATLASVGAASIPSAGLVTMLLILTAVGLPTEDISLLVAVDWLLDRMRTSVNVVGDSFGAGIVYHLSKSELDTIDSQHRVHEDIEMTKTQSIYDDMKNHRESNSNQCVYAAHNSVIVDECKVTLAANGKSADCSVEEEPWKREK
Procedure: as §1, §2, §3

EAAT1 = biological target: T5, EAAT1 (Homo sapiens, UniProt P43003); test: Electrophysiology specificity experiment in transfected HEK293 cells, EAAT1; conditions: apparent Ki, HEK293, internal solution 10 mM glutamate, mean ± SD
T5 construct: expressed in transfected cells; host or cells: HEK293 (ATCC CRL-11268), transient transfection
T5 sequence (P43003 whole entry, species assumed): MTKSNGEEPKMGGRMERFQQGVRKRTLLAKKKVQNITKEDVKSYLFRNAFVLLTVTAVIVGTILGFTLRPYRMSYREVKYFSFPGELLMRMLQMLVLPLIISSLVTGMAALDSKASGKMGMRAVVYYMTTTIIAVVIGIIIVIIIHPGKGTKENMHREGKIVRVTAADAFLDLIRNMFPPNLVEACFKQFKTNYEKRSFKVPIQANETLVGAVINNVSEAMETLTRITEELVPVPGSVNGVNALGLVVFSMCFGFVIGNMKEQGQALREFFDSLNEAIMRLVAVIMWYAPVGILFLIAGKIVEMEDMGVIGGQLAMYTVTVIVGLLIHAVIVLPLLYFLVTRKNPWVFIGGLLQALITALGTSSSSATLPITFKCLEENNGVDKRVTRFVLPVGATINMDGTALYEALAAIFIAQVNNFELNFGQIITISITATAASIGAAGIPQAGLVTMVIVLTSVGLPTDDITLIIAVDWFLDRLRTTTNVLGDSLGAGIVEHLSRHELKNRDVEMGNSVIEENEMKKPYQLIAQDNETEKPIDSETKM
Procedure: as §1, §2, §3

[3] = Table 3, dihydroxyproline derivatives, read-out: Ki All DNA: rASCT2
[4] = Table 3, dihydroxyproline derivatives, read-out: Ki All DNA: hASCT1
[5] = Table 3, dihydroxyproline derivatives, read-out: Ki All DNA: hASCT2
[6] = apparent Ki in the absence of substrate, HEK293, mean ± SD, read-out: Ki rASCT2
[7] = apparent Ki in the absence of substrate, HEK293, mean ± SD, read-out: Ki hASCT2
[8] = apparent Ki in the absence of substrate, HEK293, mean ± SD, read-out: Ki hASCT1

Ki (rASCT2; [3]) [nM] | Ki (hASCT1; [4]) [µM] | Ki (hASCT2 [2]; [5]) [nM] | Ki (rASCT2; [6]) [nM] | Ki (hASCT2 [2]; [7]) [nM] | Ki (hASCT1; [8]) [µM] | SMILES | also measured
3870 | 6.61 | 4550 | – | – | – | O=C(OC[C@@]1(O)CN[C@H](C(=O)O)C1)c1ccc(-c2ccccc2)cc1 [SN57] | Competition Expt % block (given as a decimal): hASCT2 (hASCT2 [1]): full; Ki (hASCT2 [1]): 40 µM
4870 | 8.15 | 4610 | – | – | – | O=C(OC[C@@]1(O)CN[C@H](C(=O)O)C1)c1ccc(-c2cccc(F)c2)cc1F [SN60] | –
88600 | 18.6 | 108000 | – | – | – | O=C(OC[C@@]1(O)CN[C@H](C(=O)O)C1)c1ccc(C(=O)c2ccccc2)cc1 [SN61] | –
232000 | 93 | 405000 | – | – | – | O=C(OC[C@@]1(O)CN[C@H](C(=O)O)C1)c1ccc(C(O)c2ccccc2)cc1 (stereo partly drawn) [SN63] | –
8030 | – | 4250 | – | – | – | O=C(O[C@]1(CO)CN[C@H](C(=O)O)C1)c1ccc(-c2ccccc2)cc1 [SN73] | Competition Expt % block (given as a decimal): hASCT2 (hASCT2 [1]): full; Ki (hASCT2 [1]): 22.3 µM; Ki (EAAT2): 21.4 µM
2160 | 2.45 | 3200 | – | – | – | O=C(O[C@]1(CO)CN[C@H](C(=O)O)C1)c1ccc(-c2ccc(F)cc2)cc1 [SN74] | –
3310 | 1.17 | 8070 | – | – | – | O=C(O[C@]1(CO)CN[C@H](C(=O)O)C1)c1ccc(-c2ccc(C(F)(F)F)cc2)cc1 [SN75] | –
20000 | 12.2 | 31900 | – | – | – | O=C(O[C@]1(CO)CN[C@H](C(=O)O)C1)c1ccc(Oc2ccccc2)cc1 [SN76] | –
– | – | – | 5630 ± 1000 | 5560 ± 4700 | – | O=C(O[C@@H]1CN[C@H](C(=O)O)C1)c1cccc(-c2ccccc2)c1 [SN 06] | –
– | – | – | 18800 ± 5000 | 5650 ± 1300 | 43 ± 13.4 | O=C(O[C@@H]1CN[C@H](C(=O)O)C1)c1ccc(C(O)c2ccccc2)cc1 (stereo partly drawn) [SN 13] | Ki (EAAT1): 39.5 ± 19 µM
– | – | – | 4580 ± 1100 | – | – | O=C(Nc1ccc(C(=O)O[C@@H]2CN[C@H](C(=O)O)C2)cc1)c1ccccc1 [SN 14] | –
– | – | – | 3370 ± 400 | 2940 ± 900 | 8.51 ± 3.9 | O=C(Nc1ccc(C(=O)O[C@@H]2CN[C@H](C(=O)O)C2)cc1)c1ccc(C(F)(F)F)cc1 [SN 15] | Ki (EAAT1): 1.29 ± 0.2 µM
– | – | – | – | – | 9.97 ± 0.5 | O=C(Nc1cccc(C(=O)O[C@@H]2CN[C@H](C(=O)O)C2)c1)c1ccc(C(F)(F)F)cc1 [SN 17] | Ki (rASCT2; apparent Ki in the absence of substrate, HEK293, nM, read-out: Ki rASCT2): < 100 nM; Ki (hASCT2 [2]; apparent Ki in the absence of substrate, HEK293, nM, read-out: Ki hASCT2): < 100 nM
– | – | – | 2790 ± 700 | 3010 ± 500 | 7.01 ± 2.1 | O=C(O[C@@H]1CN[C@H](C(=O)O)C1)c1ccc(-c2ccccn2)cc1 [SN 18] | Ki (EAAT1): 12.4 ± 1 µM
– | – | – | 3680 ± 700 | 4170 ± 500 | 5.71 ± 0.9 | O=C(O[C@@H]1CN[C@H](C(=O)O)C1)c1ccc(Oc2ccccc2)cc1 [SN 20] | –
– | – | – | 8170 ± 1100 | – | > 100 | O=C(O[C@@H]1CN[C@H](C(=O)O)C1)c1ccc(OCc2ccccc2)cc1 [SN 21] | –
